# Test results taken from patent publication US20210047297A1, “4-(3-AMINO-6-FLUORO-1H-INDAZOL-5-YL)-1,2,6-TRIMETHYL-1,4-DIHYDROPYRIDINE-3,5-DIC ARBONITRILE COMPOUNDS FOR TREATING HYPERPROLIFERATIVE DISORDERS” (Bayer Pharma Aktiengesellschaft, priority 2018, published 2021).
# Biological target: T1, GST-AMPKα2/ß1/γ1 complex (full-length human AMPKα2) (Homo sapiens, UniProt P54619+P54646+Q9Y478)
# T1 construct: purchased Carna Biosciences 02-114; host or cells: baculovirus expression system
# Assay: AMPK high ATP assay (TR-FRET-based AMPK activity inhibition assay)
# Format: biochemical
# Details: ATP concentration of 1 mM; median; read-out: AMPK high ATP assay IC50 [mol/l] (median)
# Description: AMPK inhibitory activity of compounds of the present invention at an ATP concentration of 1 mM was quantified employing the TR-FRET-based AMPK activity inhibition assay as described in the following paragraphs.
# Recombinant fusion protein of N-terminal Glutathion-S-Transferase (GST) and full-length human AMPKα2 [1-552(end) amino acids of accession number NP_006243.2] co-expressed with GST-PRKAB1 [1-270(end) amino acids of accession number NP_006244.2] and PRKAG1 [1-331(end) amino acids of accession number NP_002724.1] using a baculovirus expression system, purified as GST-AMPKα2/ß1/γ1 complex by using glutathione sepharose chromatography, activated with His-tagged CaMKK1 and subsequently purified by using glutathione sepharose chromatography, was purchased from Carna Biosciences (product number 02-114) and used as kinase. As substrate for the kinase reaction biotinylated peptide biotin-Ahx-HMRSAMSFAEPG (C-terminus in amide form) was used which can be purchased e.g. form the company Biosyntan (Berlin-Buch, Germany). For the assay 50 nl of a 100 fold concentrated solution of the test compound in DMSO was pipetted into either a black low volume 384 well microtiter plate or a black 1536 well microtiter plate (both Greiner Bio-One, Frickenhausen, Germany), 2 μl of a solution of GST-AMPKα2/ß1/γ1 in aqueous assay buffer [50 mM Hepes pH 7.5, 10 mM MgCl2, 5 mM β-glycerophosphate, 2.5 mM dithiothreitol (DTT), 0.5 mM EGTA, 0.01% (w/v) bovine γ-globulin (Sigma-Aldrich, #G5009), 0.01% (v/v) Triton X-100 (Sigma-Aldrich, #T9284)] were added and the mixture was incubated for 15 min at 22° C. to allow pre-binding of the test compounds to the enzyme before the start of the kinase reaction. Then the kinase reaction was started by the addition of 3 μl of a solution of adenosine-tri-phosphate (ATP, 1.67 mM=>final conc. in the 5 μl assay volume is 1 mM), adenosine-mono-phosphate (AMP, 3.33 μM=>final conc. in the 5 μl assay volume is 2 μM), and substrate (0.83 μM=>final conc. in the 5 μl assay volume is 0.5 μM) in assay buffer and the resulting mixture was incubated for a reaction time of 30 min at 22° C. The concentration of GST-AMPK α2/ß1/γ1 was adjusted depending of the activity of the enzyme lot and was chosen appropriate to have the assay in the linear range, a typical concentration was 0.08 nM. The reaction was stopped by the addition of 3 μl of a solution of TR-FRET detection reagents (0.2 μM streptavidine-XL665 [Cisbio Bioassays, Codolet, France] and 3.33 nM anti-phosho-Serine antibody [Merck Millipore, “STK antibody”, cat. #35-002] and 3.33 nM anti mouse IgG-Tb cryptate, a Terbium-cryptate labelled anti-mouse IgG antibody [Cisbio Bioassays, Codolet, France] in an aqueous EDTA-solution (166.7 mM EDTA, 0.06 (w/v) bovine serum albumin in 50 mM HEPES pH 7.5).
# The resulting mixture was incubated 1 h at 22° C. to allow the formation of complex between the phosphorylated biotinylated peptide and the detection reagents. Subsequently the amount of phosphorylated substrate was evaluated by measurement of the resonance energy transfer from the Tb-cryptate to the streptavidine-XL665. Therefore, the fluorescence emissions at 620 nm and 665 nm after excitation at 350 nm was measured in a TR-FRET reader, e.g. a Pherastar FS (BMG Labtechnologies, Offenburg, Germany) or a Viewlux (Perkin-Elmer). The ratio of the emissions at 665 nm and at […] was taken as the measure for the amount of phosphorylated substrate. The data were normalised (enzyme reaction without inhibitor=0 inhibition, all other assay components but no enzyme=100% inhibition).
# T1 sequence (P54646 whole entry): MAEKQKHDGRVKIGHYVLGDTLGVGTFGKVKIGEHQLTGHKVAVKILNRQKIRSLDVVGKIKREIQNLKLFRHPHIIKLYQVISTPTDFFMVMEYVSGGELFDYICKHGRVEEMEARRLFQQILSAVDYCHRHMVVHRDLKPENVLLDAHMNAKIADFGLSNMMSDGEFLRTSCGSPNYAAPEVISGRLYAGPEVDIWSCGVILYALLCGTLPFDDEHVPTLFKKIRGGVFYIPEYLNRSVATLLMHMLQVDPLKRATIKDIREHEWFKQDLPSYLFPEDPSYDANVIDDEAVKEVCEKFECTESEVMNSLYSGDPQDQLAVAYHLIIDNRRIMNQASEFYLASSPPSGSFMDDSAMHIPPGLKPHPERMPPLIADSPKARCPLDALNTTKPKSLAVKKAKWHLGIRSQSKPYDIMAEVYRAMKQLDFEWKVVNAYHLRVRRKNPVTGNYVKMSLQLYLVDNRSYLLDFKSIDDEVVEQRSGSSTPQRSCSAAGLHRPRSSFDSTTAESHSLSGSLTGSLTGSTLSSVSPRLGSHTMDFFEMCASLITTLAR
# T1 sequence (Q9Y478 whole entry partner): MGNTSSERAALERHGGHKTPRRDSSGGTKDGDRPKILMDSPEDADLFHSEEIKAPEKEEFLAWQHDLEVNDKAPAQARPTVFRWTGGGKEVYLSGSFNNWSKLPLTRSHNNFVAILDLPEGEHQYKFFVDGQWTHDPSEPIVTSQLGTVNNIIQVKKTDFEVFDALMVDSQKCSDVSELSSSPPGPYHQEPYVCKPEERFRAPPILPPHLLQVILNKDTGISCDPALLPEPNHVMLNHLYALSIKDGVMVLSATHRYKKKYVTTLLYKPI
# T1 sequence (P54619 whole entry partner): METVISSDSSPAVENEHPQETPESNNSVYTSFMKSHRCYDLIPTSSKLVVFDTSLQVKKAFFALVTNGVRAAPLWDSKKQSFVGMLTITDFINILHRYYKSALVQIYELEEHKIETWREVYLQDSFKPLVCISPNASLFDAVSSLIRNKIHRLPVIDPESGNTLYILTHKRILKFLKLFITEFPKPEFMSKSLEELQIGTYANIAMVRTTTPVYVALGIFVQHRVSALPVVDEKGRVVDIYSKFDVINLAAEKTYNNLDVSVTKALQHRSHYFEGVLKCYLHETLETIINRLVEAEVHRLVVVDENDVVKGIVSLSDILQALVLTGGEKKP
row,Structure (SMILES),IC50
1,"CC1=C(C#N)C(c2cc3c(NC(=O)c4ccc(OCCN5CCCC5)cc4Cl)n[nH]c3c(I)c2F)C(C#N)=C(C)N1C [Example 4, 2-chloro-N-[5-(3,5-dicyano-1,2,6-trimethyl-1,4-dihydropyridin-4-yl)-6-fluoro-7-iodo-1H-indazol-3-yl]-4-[2-(pyrrolidin-1-yl)ethoxy]benzamide]",0.0027 µM
2,"CCn1nc(C)cc1C(=O)Nc1n[nH]c2c(C)c(F)c(C3C(C#N)=C(C)N(C)C(C)=C3C#N)cc12 [Example 5, N-[5-(3,5-dicyano-1,2,6-trimethyl-1,4-dihydropyridin-4-yl)-6-fluoro-7-methyl-1H-indazol-3-yl]-1-ethyl-3-methyl-1H-pyrazole-5-carboxamide]",0.00374 µM
3,"CC1=C(C#N)C(c2cc3c(NC(=O)c4c(F)cccc4Cl)n[nH]c3c(C)c2F)C(C#N)=C(C)N1C [Example 11, 2-chloro-N-[5-(3,5-dicyano-1,2,6-trimethyl-1,4-dihydropyridin-4-yl)-6-fluoro-7-methyl-1H-indazol-3-yl]-6-fluorobenzamide]",0.0089 µM
4,"CC1=C(C#N)C(c2cc3c(NC(=O)c4cc(F)ccc4C(F)(F)F)n[nH]c3c(C)c2F)C(C#N)=C(C)N1C [Example 10, N-[5-(3,5-dicyano-1,2,6-trimethyl-1,4-dihydropyridin-4-yl)-6-fluoro-7-methyl-1H-indazol-3-yl]-5-fluoro-2-(trifluoromethyl)benzamide]",0.0262 µM
5,"COCCn1cc(C(=O)Nc2n[nH]c3c(C)c(F)c(C4C(C#N)=C(C)N(C)C(C)=C4C#N)cc23)c(C(F)(F)F)n1 [Example 15, N-[5-(3,5-dicyano-1,2,6-trimethyl-1,4-dihydropyridin-4-yl)-6-fluoro-7-methyl-1H-indazol-3-yl]-1-(2-methoxyethyl)-3-(trifluoromethyl)-1H-pyrazole-4-carboxamide]",0.00776 µM
6,"CCc1c(F)c(C2C(C#N)=C(C)N(C)C(C)=C2C#N)cc2c(NC(=O)c3cc(C)nn3CC)n[nH]c12 [Example 30, N-[5-(3,5-dicyano-1,2,6-trimethyl-1,4-dihydropyridin-4-yl)-7-ethyl-6-fluoro-1H-indazol-3-yl]-1-ethyl-3-methyl-1H-pyrazole-5-carboxamide]",0.0686 µM
7,"CC1=C(C#N)C(c2ccc3[nH]nc(NC(=O)c4ccccc4)c3c2)C(C#N)=C(C)N1 [Reference Example 1, N-[5-(3,5-dicyano-2,6-dimethyl-1,4-dihydropyridin-4-yl)-1H-indazol-3-yl]benzamide, reference compound]",0.279 µM
8,"CCc1c(F)c(C2C(C#N)=C(C)N(C)C(C)=C2C#N)cc2c(NC(=O)c3c(F)cccc3F)n[nH]c12 [Example 26, N-[5-(3,5-dicyano-1,2,6-trimethyl-1,4-dihydropyridin-4-yl)-7-ethyl-6-fluoro-1H-indazol-3-yl]-2,6-difluorobenzamide]",0.0381 µM
9,"CCc1c(F)c(C2C(C#N)=C(C)N(C)C(C)=C2C#N)cc2c(NC(=O)c3c(Cl)cnn3C)n[nH]c12 [Example 29, 4-chloro-N-[5-(3,5-dicyano-1,2,6-trimethyl-1,4-dihydropyridin-4-yl)-7-ethyl-6-fluoro-1H-indazol-3-yl]-1-methyl-1H-pyrazole-5-carboxamide]",0.122 µM
10,"CCn1nc(C)cc1C(=O)Nc1n[nH]c2c(I)c(F)c(C3C(C#N)=C(C)N(C)C(C)=C3C#N)cc12 [Example 1, N-[5-(3,5-dicyano-1,2,6-trimethyl-1,4-dihydropyridin-4-yl)-6-fluoro-7-iodo-1H-indazol-3-yl]-1-ethyl-3-methyl-1H-pyrazole-5-carboxamide]",0.0626 µM
11,"CC1=C(C#N)C(c2cc3c(NC(=O)c4ccccc4Cl)n[nH]c3c(C)c2F)C(C#N)=C(C)N1C [Example 6, 2-chloro-N-[5-(3,5-dicyano-1,2,6-trimethyl-1,4-dihydropyridin-4-yl)-6-fluoro-7-methyl-1H-indazol-3-yl]benzamide]",0.00365 µM
12,"CC1=C(C#N)C(c2cc3c(NC(=O)c4ccc(OCCN5CCCC5)cc4Cl)n[nH]c3c(C)c2F)C(C#N)=C(C)N1C [Example 20, 2-chloro-N-[5-(3,5-dicyano-1,2,6-trimethyl-1,4-dihydropyridin-4-yl)-6-fluoro-7-methyl-1H-indazol-3-yl]-4-[2-(pyrrolidin-1-yl)ethoxy]benzamide]",0.00066 µM
13,"CC1=C(C#N)C(c2cc3c(NC(=O)c4ccccc4Cl)n[nH]c3c(I)c2F)C(C#N)=C(C)N1C [Example 2, 2-chloro-N-[5-(3,5-dicyano-1,2,6-trimethyl-1,4-dihydropyridin-4-yl)-6-fluoro-7-iodo-1H-indazol-3-yl]benzamide]",0.013 µM
14,"CC1=C(C#N)C(c2cc3c(NC(=O)c4cnn(CC(C)(C)O)c4C(F)(F)F)n[nH]c3c(C)c2F)C(C#N)=C(C)N1C [Example 18, N-[5-(3,5-dicyano-1,2,6-trimethyl-1,4-dihydropyridin-4-yl)-6-fluoro-7-methyl-1H-indazol-3-yl]-1-(2-hydroxy-2-methylpropyl)-5-(trifluoromethyl)-1H-pyrazole-4-carboxamide]",0.0454 µM
